SMILES strings stand for the structures.

Sequence of human orexin-2 receptor (O43614 whole entry): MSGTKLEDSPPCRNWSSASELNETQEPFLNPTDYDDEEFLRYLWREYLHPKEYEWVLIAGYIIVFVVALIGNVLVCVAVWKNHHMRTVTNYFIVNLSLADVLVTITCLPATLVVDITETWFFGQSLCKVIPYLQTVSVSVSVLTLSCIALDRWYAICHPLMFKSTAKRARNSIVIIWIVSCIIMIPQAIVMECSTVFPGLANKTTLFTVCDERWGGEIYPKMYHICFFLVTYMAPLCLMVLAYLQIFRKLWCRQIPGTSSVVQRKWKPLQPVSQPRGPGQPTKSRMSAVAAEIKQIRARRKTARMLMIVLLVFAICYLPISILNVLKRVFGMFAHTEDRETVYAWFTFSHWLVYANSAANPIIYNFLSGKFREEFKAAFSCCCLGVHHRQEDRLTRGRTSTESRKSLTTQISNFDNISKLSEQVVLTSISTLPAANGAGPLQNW

This assay concerns the target human orexin-2 receptor (Homo sapiens (Human), UniProt O43614). Put plainly: FLIPR Ca2+ Flux Assay, orexin-2 receptor. The assay is classed as cell-based. The following applies: CHO cells expressing the human orexin-2 receptor; agonist 70 pM Ala-6,12 human orexin-A; read-out: hOX2 FLIPR IC50. How it is done:
In a typical experiment the OX1 and OX2 receptor antagonistic activity of the compounds of the present invention was determined in accordance with the following experimental method. For intracellular calcium measurements, Chinese hamster ovary (CHO) cells expressing the rat orexin-1 receptor or the human orexin-2 receptor, are grown in Iscove's modified DMEM containing 2 mM L-glutamine, […], 1% hypoxanthine-thymidine supplement, 100 U/ml penicillin, 100 μg/ml streptomycin and 10% heat-inactivated fetal calf serum (FCS). The cells are seeded at 20,000 cells/well into Becton-Dickinson black 384-well clear bottom sterile plates coated with poly-D-lysine. All reagents are from GIBCO-Invitrogen Corp. The seeded plates are incubated overnight at 37° C. and 5% CO2. Ala-6,12 human orexin-A as the agonist is prepared as a 1 mM stock solution in 1% bovine serum albumin (BSA) and diluted in assay buffer (HBSS containing 20 mM HEPES, 0.1% BSA and 2.5 mM probenecid, pH7.4) for use in the assay at a final concentration of 70 pM. Test compounds are prepared as 10 mM stock solution in DMSO, then diluted in 384-well plates, first in DMSO, then assay buffer. On the day of the assay, cells are washed 3 times with 100 μl assay buffer and then incubated for 60 min (37° C., 5% CO2) in 60 μl assay buffer containing 1 μM Fluo-4AM ester, 0.02% pluronic acid, and 1% BSA. The dye loading solution is then aspirated and cells are washed 3 times with 100 μl assay buffer. 30 μl of that same buffer is left in each well. Within the Fluorescent Imaging Plate Reader (FLIPR, Molecular Devices), test compounds are added to the plate in a volume of 25 μl, incubated for 5 min and finally 25 μl of agonist is added. Fluorescence is measured for each well at 1 second intervals for 5 minutes and the height of each fluorescence peak is compared to the height of the fluorescence peak induced by 70 pM Ala-6,12 orexin-A with buffer in place of antagonist. […] The intrinsic orexin receptor antagonist activity of a compound which may be used in the present invention may be determined by these assays.
(Calcium assays in cells follow changes in intracellular calcium, usually with a dye or a luminescent sensor.)
By IC50 is commonly meant the point on the concentration scale where inhibition reaches its midpoint. `C[C@@H]1CC[C@@H](c2cc(C(C)(O)C3CC3)on2)CN1C(=O)c1ccccc1-n1nccn1` (single isomer, unassigned) [Example 9]: the IC50 is 25.8 nM.

With `C[C@@H]1CC[C@@H](c2cc(C(C)(O)C3CC3)on2)CN1C(=O)c1ccccc1-n1nccn1` (single isomer, unassigned) [Example 10], the IC50 came to 15.6 nM.

As for `CC(C)C(C)(O)c1cc([C@@H]2CC[C@@H](C)N(C(=O)c3ccccc3-n3nccn3)C2)no1` (single isomer, unassigned) [Example 16], the IC50 is 24.3 nM.

Regarding `CC(C)C(C)(O)c1cc([C@@H]2CC[C@@H](C)N(C(=O)c3ccccc3-n3nccn3)C2)no1` (single isomer, unassigned) [Example 17], the IC50 is 24.5 nM.

Consider `C[C@@H]1CC[C@@H](c2cc(C(C)(O)C3CC3)no2)CN1C(=O)c1ccccc1-n1nccn1` (single isomer, unassigned) [Example 52], for which the half-inhibitory concentration (IC50) worked out at 47.3 nM.

Consider `C[C@@H]1CC[C@@H](c2cc(C(C)(O)C3CC3)no2)CN1C(=O)c1ccccc1-n1nccn1` (single isomer, unassigned) [Example 53], for which the IC50 amounted to 34.3 nM.

On to `C[C@@H]1CC[C@@H](c2cc(C(C)(C)O)on2)CN1C(=O)c1ccccc1-n1nccn1` [Example 1, 2-{3-[(3R,6R)-6-Methyl-1-{[2-(2H-1,2,3-triazol-2-yl)phenyl]carbonyl}piperidin-3-yl]isoxazol-5-yl}propan-2-ol], for which the concentration for half-maximal inhibition (IC50) worked out at 46.9 nM.

As to `C[C@@H]1CC[C@@H](c2cc(C(C)(C)O)on2)CN1C(=O)c1ccccc1C1(C#N)CC1` [Example 2, 1-(2-((2R,5R)-5-(5-(2-Hydroxypropan-2-yl)isoxazol-3-yl)-2-methylpiperidine-1-carbonyl)phenyl)cyclopropanecarbonitrile], the half-inhibitory concentration (IC50) was found to be 104 nM.

Consider `C[C@@H]1CC[C@@H](c2cc(C(C)(C)O)on2)CN1C(=O)c1cc(Cl)ccc1-n1nccn1` [Example 3, (5-Chloro-2-(2H-1,2,3-triazol-2-yl)phenyl)((2R,5R)-5-(5-(2-hydroxypropan-2-yl)isoxazol-3-yl)-2-methylpiperidin-1-yl)methanone], for which the concentration for half-maximal inhibition (IC50) stood at 1430 nM.

`C[C@@H]1CC[C@@H](c2cc(C(C)(C)O)on2)CN1C(=O)c1cc(F)ccc1-n1nccn1` [Example 4, (5-Fluoro-2-(2H-1,2,3-triazol-2-yl)phenyl)((2R,5R)-5-(5-(2-hydroxypropan-2-yl)isoxazol-3-yl)-2-methylpiperidin-1-yl)methanone]: the half-inhibitory concentration (IC50) came out at 278 nM.

In the case of `CCOc1ccccc1C(=O)N1C[C@H](c2cc(C(C)(C)O)on2)CC[C@H]1C` [Example 5, (2-Ethoxyphenyl)((2R,5R)-5-(5-(2-hydroxypropan-2-yl)isoxazol-3-yl)-2-methylpiperidin-1-yl)methanone], the IC50 was found to be 1190 nM.

Turning to `CC(C)Oc1ncccc1C(=O)N1C[C@H](c2cc(C(C)(C)O)on2)CC[C@H]1C` [Example 6, ((2R,5R)-5-(5-(2-Hydroxypropan-2-yl)isoxazol-3-yl)-2-methylpiperidin-1-yl)(2-isopropoxypyridin-3-yl)methanone], the half-inhibitory concentration (IC50) came to 1840 nM.

On to `C[C@@H]1CC[C@@H](c2cc(C(C)(C)O)on2)CN1C(=O)c1cccnc1OCC(F)(F)F` [Example 7, ((2R,5R)-5-(5-(2-Hydroxypropan-2-yl)isoxazol-3-yl)-2-methylpiperidin-1-yl)(2-(2,2,2-trifluoroethoxy)pyridin-3-yl)methanone], for which the IC50 was 227 nM.

With `CCC(O)(CC)c1cc([C@@H]2CC[C@@H](C)N(C(=O)c3ccccc3-n3nccn3)C2)no1` [Example 8, (2-(2H-1,2,3-triazol-2-yl)phenyl)((2R,5R)-5-(5-(3-hydroxypentan-3-yl)isoxazol-3-yl)-2-methylpiperidin-1-yl)methanone], the half-maximal inhibitory concentration (IC50) was determined as 552 nM.

As for `CC[C@@](C)(O)c1cc([C@@H]2CC[C@@H](C)N(C(=O)c3ccccc3-n3nccn3)C2)no1` [Example 11, (2-(2H-1,2,3-Triazol-2-yl)phenyl)((2R,5R)-5-(5-((R)-2-hydroxybutan-2-yl)isoxazol-3-yl)-2-methylpiperidin-1-yl)methanone], the IC50 was 41.4 nM.

For the compound `CC[C@](C)(O)c1cc([C@@H]2CC[C@@H](C)N(C(=O)c3ccccc3-n3nccn3)C2)no1` [Example 12, (2-(2H-1,2,3-triazol-2-yl)phenyl)((2R,5R)-5-(5-((S)-2-hydroxybutan-2-yl)isoxazol-3-yl)-2-methylpiperidin-1-yl)methanone], the IC50 came out at 15 nM.

For the compound `C[C@@H]1CC[C@@H](c2cc(C3(O)CCC3)on2)CN1C(=O)c1ccccc1-n1nccn1` [Example 13, 1-{3-[(3R,6R)-6-Methyl-1-{[2-(2H-1,2,3-triazol-2-yl)phenyl]carbonyl}piperidin-3-yl]isoxazol-5-yl}cyclobutanol], the IC50 came to 635 nM.

On to `C[C@@H]1CC[C@@H](c2cc([C@](C)(O)C(F)F)on2)CN1C(=O)c1ccccc1-n1nccn1` [Example 18, (2S)-1,1-Difluoro-2-{3-[(3R,6R)-6-methyl-1-{[2-(2H-1,2,3-triazol-2-yl)phenyl]carbonyl}piperidin-3-yl]isoxazol-5-yl}propan-2-ol], for which the IC50 came to 92 nM.

Consider `COC(C)(C)c1cc([C@@H]2CC[C@@H](C)N(C(=O)c3ccccc3-n3nccn3)C2)no1` [Example 19, (2R,5R)-5-[5-(1-methoxy-1-methylethyl)isoxazol-3-yl]-2-methyl-1-{[2-(2H-1,2,3-triazol-2-yl)phenyl]carbonyl}piperidine], for which the 50% inhibitory concentration (IC50) amounted to 27.3 nM.

As to `C[C@@H]1CC[C@@H](c2cc(C(C)(C)O)no2)CN1C(=O)c1ccccc1-n1nccn1` [Example 20, 2-{5-[(3R,6R)-6-Methyl-1-{[2-(2H-1,2,3-triazol-2-yl)phenyl]carbonyl}piperidin-3-yl]isoxazol-3-yl}propan-2-ol], the half-maximal inhibitory concentration (IC50) turned out to be 30.3 nM.

As to `COCc1ccccc1C(=O)N1C[C@H](c2cc(C(C)(C)O)no2)CC[C@H]1C` [Example 21, 2-{5-[(3R,6R)-1-{[2-(Methoxymethyl)phenyl]carbonyl}-6-methylpiperidin-3-yl]isoxazol-3-yl}propan-2-ol], the IC50 is 1120 nM.

`C[C@@H]1CC[C@@H](c2cc(C(C)(C)O)no2)CN1C(=O)c1ccccc1-c1ncccn1` [Example 22, 2-(5-{(3R,6R)-6-Methyl-1-[(2-pyrimidin-2-ylphenyl)carbonyl]piperidin-3-yl}isoxazol-3-yl)propan-2-ol]: the IC50 was 51.4 nM.

For the compound `CCOc1ncccc1C(=O)N1C[C@H](c2cc(C(C)(C)O)no2)CC[C@H]1C` [Example 23, 2-(5-{(3R,6R)-1-[(2-Ethoxypyridin-3-yl)carbonyl]-6-methylpiperidin-3-yl}isoxazol-3-yl)propan-2-ol], the IC50 was determined as 268 nM.

For the compound `C[C@@H]1CC[C@@H](c2cc(C(C)(C)O)no2)CN1C(=O)c1cc(F)ccc1-n1nccn1` [Example 24, 2-{5-[(3R,6R)-1-{[5-Fluoro-2-(2H-1,2,3-triazol-2-yl)phenyl]carbonyl}-6-methylpiperidin-3-yl]isoxazol-3-yl}propan-2-ol], the IC50 worked out at 215 nM.

As to `C[C@@H]1CC[C@@H](c2cc(C(C)(C)O)no2)CN1C(=O)c1nccnc1-n1cccn1` [Example 25, 2-{5-[(3R,6R)-6-methyl-1-{[3-(1H-pyrazol-1-yl)pyrazin-2-yl]carbonyl}piperidin-3-yl]isoxazol-3-yl}propan-2-ol], the IC50 is 799 nM.

With `C[C@@H]1CC[C@@H](c2cc(C(C)(C)O)no2)CN1C(=O)c1ccccc1-c1ccccc1` [Example 26, 2-{5-[(3R,6R)-1-(Biphenyl-2-ylcarbonyl)-6-methylpiperidin-3-yl]isoxazol-3-yl}propan-2-ol], the IC50 was 22.9 nM.

Turning to `C[C@@H]1CC[C@@H](c2cc(C(C)(C)O)no2)CN1C(=O)c1cc(Cl)ccc1-n1nccn1` [Example 27, 2-{5-[(3R,6R)-1-{[5-Chloro-2-(2H-1,2,3-triazol-2-yl)phenyl]carbonyl}-6-methylpiperidin-3-yl]isoxazol-3-yl}propan-2-ol], the IC50 came to 604 nM.

Regarding `C[C@@H]1CC[C@@H](c2cc(C(C)(C)O)no2)CN1C(=O)c1nccnc1-c1ccccn1` [Example 28, 2-(5-{(3R,6R)-6-Methyl-1-[(3-pyridin-2-ylpyrazin-2-yl)carbonyl]piperidin-3-yl}isoxazol-3-yl)propan-2-ol], the IC50 was 1420 nM.

Take `C[C@@H]1CC[C@@H](c2cc(C(C)(C)O)no2)CN1C(=O)c1ccccc1C1(C#N)CC1` [Example 29, 1-[2-({(2R,5R)-5-[3-(1-Hydroxy-1-methylethyl)isoxazol-5-yl]-2-methylpiperidin-1-yl}carbonyl)phenyl]cyclopropanecarbonitrile]: the IC50 amounted to 8.8 nM.

In the case of `COC(=O)c1ccccc1C(=O)N1C[C@H](c2cc(C(C)(C)O)no2)CC[C@H]1C` [Example 30, Methyl 2-({(2R,5R)-5-[3-(1-hydroxy-1-methylethyl)isoxazol-5-yl]-2-methylpiperidin-1-yl}carbonyl)benzoate], the IC50 came out at 251 nM.
